A short description of data set [1]: UV-vis Cu^2+ binding and Job's plot analysis of AMF:Cu^2+ stoichiometry. Format: physicochemical.
Data set [2] has as its target T1, Aβ42 peptide (Homo sapiens, UniProt P05067). Description: Inhibition of Aβ42 aggregation, TEM and native gel electrophoresis/Western blot. Format: biochemical. To be noted: 37 °C, 24 h; for Aβ42 aggregates observed by TEM: [Aβ42] = [M^2+] = [AMF] = 25 μM; for Aβ42 aggregates by native gel/Western blot: 25 μM. (In general: A western blot detects proteins with antibodies after separation by electrophoresis.)

For data set [3], the system named is amyloid plaques. Format: binding, 5xFAD transgenic mice. The settings on record: brain sections of 7 month old 5xFAD mice.
The conditions of data set [4]: pH 7.4; 2:1 Metal:AMF mixture, [M^2+]tot = 25 μM, [AMF]tot = 50 μM.
For data set [5], the target named is Aβ fibrils (Aβ40) (Homo sapiens, UniProt P05067). The experiment in a line: Thioflavin T. Format: binding.
A short description of data set [6]: Cu^2+-induced ascorbate consumption assay. Format: biochemical. To be noted: [Cu^2+] = 10 μM, [AMF] = 24 μM, [ascorbate] = 100 μM.
Data set [7] addresses T2, Aβ42 fibrils (Homo sapiens, UniProt P05067). Format: biochemical. The settings on record: 25 μM, 37 °C; for Disaggregation of Aβ42 aggregates (TEM, native gel/Western blot): 24 h then 24 h with AMF.
The conditions of data set [8]: 2:1 Metal:AMF mixture, [M^2+]tot = 25 μM, [AMF]tot = 50 μM.
Data set [9] concerns the target T2, Aβ42 fibrils. Description: Disaggregation of preformed Aβ42 fibrils, ThT fluorescence. Format: biochemical. The settings on record: in the absence and presence of Cu^2+; [Aβ] = [M^2+] = [AMF] = 25 μM, additional 24 h at 37 °C.
For data set [10], the target named is T1, Aβ42 peptide. The experiment in a line: Inhibition of Aβ42 aggregation, ThT fluorescence. Format: biochemical. The settings on record: in presence and absence of Cu^2+ or Zn^2+; [Aβ] = [M^2+] = [AMF] = 25 μM, 37 °C, 24 h.

Molecules are shown by their SMILES. Read-outs that look alike come from different tables or passages of the source.

By Ki is commonly meant a measure of affinity in units of concentration, obtained from inhibition or displacement. Read a high Ki as lower affinity.

T2 sequence (P05067 672-713 limits assumed): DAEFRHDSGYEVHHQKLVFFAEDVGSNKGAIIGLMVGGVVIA
T1 sequence (P05067 672-713 limits assumed): as above
Chain of Aβ fibrils (Aβ40) (P05067 672-711 limits assumed): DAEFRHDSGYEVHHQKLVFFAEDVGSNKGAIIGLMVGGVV

For the compound `O=c1cc(-c2ccc(O)c(-c3c(O)cc(O)c4c(=O)cc(-c5ccc(O)cc5)oc34)c2)oc2cc(O)cc(O)c12` [AMF, amentoflavone], the “Break in Job's plot” value in data set [1] (AMF and Cu^2+ in EtOH-PBS (1:10)) was 0.7 mole fraction of Cu. The “Cu bound per AMF (stoichiometry)” value in [1] (from Job's plot) is “at least 2 equiv”. The “Aβ42 aggregates observed by TEM” value in data set [2] (in the absence and presence of Cu^2+) was “only small amorphous aggregates were observed”; in data set [2] (in the presence of Zn^2+), “a range of amorphous and fibrillar aggregates is formed”. Further, the “Aβ42 aggregates by native gel/Western blot” value is “the amount of soluble Aβ42 oligomers is also reduced” in data set [2] (in the presence of Cu^2+), “a wide range of various-size aggregates is formed” in [2] (in the presence of Zn^2+) and “dramatically reduces the amount of large Aβ42 aggregates” in data set [2] (no metal ions). The “Fluorescence intensity of stained brain sections” value in data set [3] (25 μM) is “strong fluorescent intensity”. For the same compound, in [3] ([AMF] = [Cu^2+] = 25 μM, [HJ3.4] = 1 μg/mL), the “Pearson's correlation coefficient, colocalization with HJ3.4 immunofluorescence” value came to 0.65. For the same compound, in data set [4], the “pZn (pM = −log[M]free)” value was 8.15. The compound also returned a Ki in data set [5] of 287 ± 20 nM. The “Effect on ascorbate consumption” value in data set [6] (AMF added to the Cu^2+-Aβ42-ascorbate solution, [Aβ42] = 12 μM) is “efficiently reduce the consumption of ascorbate”; in [6] (premixed AMF-Cu^2+ complex, with monomeric Aβ42 12 μM) it was “significant inhibition of the ascorbate consumption”. For the same compound, the “Disaggregation of Aβ42 aggregates (TEM, native gel/Western blot)” value is “reduction in the amount of both large aggregates and smaller Aβ42 oligomers” in data set [7] (Cu^2+-incubated Aβ42 aggregates); “decreases to some extent” in data set [7] (Zn^2+-incubated Aβ42 amorphous aggregates). In addition, the “Disaggregation of Aβ42 fibrils (TEM, native gel/Western blot)” value in [7] (no metal ions, 24 h fibrilization then 24 h with AMF) is “disaggregates the Aβ42 fibrils efficiently”. The “pCu (pM = −log[M]free)” value is 9.62 in data set [8] (pH 6.6) and 10.44 in [8] (pH 7.4). Further, the “Disaggregation of preformed Aβ42 fibrils (ThT fluorescence)” value in data set [9] is given as “efficient at reducing the amount of Aβ42 fibrils”. Moreover, in data set [10], the “Effect on Aβ42 fibrillization (ThT fluorescence)” value is given as “dramatically reduced the fibrillization of Aβ42”.

These data come from publication PMC7716246 (ACS chemical neuroscience, 2020).
